# System: apyrase
# Assay: Screen for apyrase inhibitors (Method 1, in vitro phosphate-release absorbance assay)
# Type: biochemical
# Conditions: inhibitor conc at 1 mM stock, 1 hr room temperature, absorbance 630 nm; rounded average of two assay results
# Summary of the method: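 Phosphate-release colorimetric assay (Windsor method) in 60 mM Hepes, 3 mM MgCl2, 3 mM CaCl2, 3 mM ATP, pH 6.5, with compound or DMSO control added. Released phosphate developed with ammonium molybdate and ascorbic acid/TCA, then stopped with citrate/acetic acid.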
row,% Inhibition of Apyrase,Compound
1,47%,"Cc1nc2cc(NC(=O)c3cccc(S(=O)(=O)N4c5ccccc5CC4C)c3)ccc2o1 (stereo not shown) [I-583, N-(2-methylbenzo[d]oxazol-5-yl)-3-((2-methylindolin-1-yl)sulfonyl)benzamide]"
2,56%,"CCOc1ccc(NS(=O)(=O)c2c(C)cccc2NC(=O)c2ccc(Cl)cc2)cc1 [I-821, 4-chloro-N-(2-(N-(4-ethoxyphenyl)sulfamoyl)-3-methylphenyl)benzamide]"
3,65%,"CCOc1ccccc1NC(=O)c1ccc(Cl)c(S(=O)(=O)N2CCc3ccccc32)c1 [I-434, 4-chloro-N-(2-ethoxyphenyl)-3-(indolin-1-ylsulfonyl)benzamide]"
4,26%,"COc1ccc(C(=O)Nc2cccc(S(=O)(=O)Nc3nccs3)c2)cc1[N+](=O)[O-] [I-760, 4-methoxy-3-nitro-N-(3-(N-(thiazol-2-yl)sulfamoyl)phenyl)benzamide]"
5,73%,"O=C(Nc1ccc(F)c([N+](=O)[O-])c1)c1ccc(S(=O)(=O)Nc2ccc(Cl)cc2)cc1 [I-4, 4-(N-(4-chlorophenyl)sulfamoyl)-N-(4-fluoro-3-nitrophenyl)benzamide]"
6,58%,"O=C(c1cc(S(=O)(=O)Nc2ccc(Cl)cc2)ccc1Cl)N1CCc2ccccc21 [I-490, 4-chloro-N-(4-chlorophenyl)-3-(indoline-1-carbonyl)benzenesulfonamide]"
7,58%,"CN(c1ccccc1)S(=O)(=O)c1ccccc1C(=O)Nc1ccc(S(=O)(=O)N2CCCC2)cc1 [I-215, 2-(N-methyl-N-phenylsulfamoyl)-N-(4-(pyrrolidin-1-ylsulfonyl)phenyl)benzamide]"
8,67%,"Cc1ccc(NC(=O)c2cccc(S(=O)(=O)Nc3ccc4c(c3)OCO4)c2)cc1 [I-245, 3-(N-(benzo[d][1,3]dioxol-5-yl)sulfamoyl)-N-(p-tolyl)benzamide]"
9,59%,"Cc1ccc(Cl)cc1NC(=O)c1ccc(S(=O)(=O)N2CCCc3ccccc32)cc1 [I-863, N-(5-chloro-2-methylphenyl)-4-((3,4-dihydroquinolin-1(2H)-yl)sulfonyl)benzamide]"
10,7%,"Cc1cnc(C(=O)Nc2cccc(S(=O)(=O)Nc3cccc(C(F)(F)F)c3)c2)cn1 [I-769, 5-methyl-N-(3-(N-(3-(trifluoromethyl)phenyl)sulfamoyl)phenyl) pyrazine-2-carboxamide]"
11,64%,"O=C(Nc1ccc(SC(F)F)cc1)c1ccc(NS(=O)(=O)c2cccc([N+](=O)[O-])c2)cc1 [I-901, N-(4-((difluoromethyl)thio)phenyl)-4-((3-nitrophenyl)sulfonamido)benzamide]"
12,20%,"Cc1ccccc1NS(=O)(=O)c1ccc(C(=O)Nc2ccccc2C(=O)NC2CC2)cc1 [I-893, N-cyclopropyl-2-(4-(N-(o-tolyl)sulfamoyl)benzamido)benzamide]"
13,54%,"COc1ccccc1N(C)S(=O)(=O)c1ccc(C(=O)N2CCCc3ccccc32)cc1 [I-877, N-(2-methoxyphenyl)-N-methyl-4-(1,2,3,4-tetrahydroquinoline-1-carbonyl)benzenesulfonamide]"
14,42%,"CC(=O)Nc1cccc(NC(=O)c2cccc(S(=O)(=O)N3c4ccccc4CC3C)c2)c1 (stereo not shown) [I-589, N-(3-acetamidophenyl)-3-((2-methylindolin-1-yl)sulfonyl)benzamide]"
15,12%,"O=C(NCCCN1CCCC1=O)c1cccc(S(=O)(=O)Nc2ccc(Br)cc2)c1 [I-46, 3-(N-(4-bromophenyl)sulfamoyl)-N-(3-(2-oxopyrrolidin-1-yl)propyl)benzamide]"
16,54%,"O=C(Nc1cc(Cl)ccc1NS(=O)(=O)c1ccccc1F)c1ccc(NC(=O)C2CC2)cc1 [I-834, N-(5-chloro-2-((2-fluorophenyl)sulfonamido)phenyl)-4-(cyclopropanecarboxamido)benzamide]"
17,77%,"CN(c1ccccc1)S(=O)(=O)c1ccccc1C(=O)Nc1ccc2c(c1)OCO2 [I-809, N-(benzo[d][1,3]dioxol-5-yl)-2-(N-methyl-N-phenylsulfamoyl)benzamide]"
18,44%,"CC(=O)c1cccc(NC(=O)c2ccc(S(=O)(=O)Nc3ccc(C)cc3)cc2)c1 [I-398, N-(3-acetylphenyl)-4-(N-(p-tolyl)sulfamoyl)benzamide]"
19,29%,"O=C(Nc1ccc(N2CCOCC2)cc1)c1cccc(S(=O)(=O)N2CCc3ccccc32)c1 [I-601, 3-(indolin-1-ylsulfonyl)-N-(4-morpholinophenyl)benzamide]"
20,7%,"CN(c1ccccc1)S(=O)(=O)c1cccc(NC(=O)c2ccncc2)c1 [I-768, N-(3-(N-methyl-N-phenylsulfamoyl)phenyl)isonicotinamide]"

row,% Inhibition of Apyrase,Compound
1,58%,"CC1Cc2ccccc2N1S(=O)(=O)c1cccc(C(=O)Nc2ccccc2OC(F)(F)F)c1 (stereo not shown) [I-476, 3-((2-methylindolin-1-yl)sulfonyl)-N-(2-(trifluoromethoxy)phenyl)benzamide]"
2,43%,"Cc1ccc(NS(=O)(=O)c2ccc(C(=O)Nc3ccc(C)c(C)c3)cc2)cc1 [I-888, N-(3,4-dimethylphenyl)-4-(N-(p-tolyl)sulfamoyl)benzamide]"
3,60%,"NC(=O)c1cccc(NC(=O)c2cccc(S(=O)(=O)N3CCc4ccccc43)c2)c1 [I-456, N-(3-carbamoylphenyl)-3-(indolin-1-ylsulfonyl)benzamide]"
4,41%,"O=C(Nc1ccc(F)cc1)c1ccc(S(=O)(=O)Nc2ccccc2Cl)cc1 [I-400, 4-(N-(2-chlorophenyl)sulfamoyl)-N-(4-fluorophenyl)benzamide]"
5,59%,"O=C(c1cccc(S(=O)(=O)Nc2ccc(Br)cc2)c1)N1CCc2ccccc21 [I-13, N-(4-bromophenyl)-3-(indoline-1-carbonyl)benzenesulfonamide]"
6,6%,"O=C(Nc1cccc(S(=O)(=O)Nc2ccc(SC(F)F)cc2)c1)c1ccco1 [I-772, N-(3-(N-(4-((difluoromethyl)thio)phenyl)sulfamoyl)phenyl) furan-2-carboxamide]"
7,57%,"Cc1cc(S(=O)(=O)Nc2ccc(C(=O)Nc3ccc4c(c3)OCO4)cc2)ccc1F [I-920, N-(benzo[d][1,3]dioxol-5-yl)-4-((4-fluoro-3-methylphenyl)sulfonamido)benzamide]"
8,30%,"O=C(Nc1cccc([N+](=O)[O-])c1)c1ccc(Br)c(S(=O)(=O)Nc2cccc(F)c2)c1 [I-23, 4-bromo-3-(N-(3-fluorophenyl)sulfamoyl)-N-(3-nitrophenyl)benzamide]"
9,61%,"Cc1ccc(NS(=O)(=O)c2ccc(C(=O)Nc3ccc(C)cc3Br)cc2)cc1 [I-862, N-(2-bromo-4-methylphenyl)-4-(N-(p-tolyl)sulfamoyl)benzamide]"
10,41%,"COc1ccc(NS(=O)(=O)c2cccc(NC(=O)c3ccc(Cl)s3)c2)cc1 [I-749, 5-chloro-N-(3-(N-(4-methoxyphenyl)sulfamoyl)phenyl)thiophene-2-carboxamide]"
11,56%,"COc1ccc(C(C)(C)C)cc1NC(=O)c1ccc(S(=O)(=O)N(C)c2ccccc2OC)cc1 [I-873, N-(5-(tert-butyl)-2-methoxyphenyl)-4-(N-(2-methoxyphenyl)-N-methylsulfamoyl)benzamide]"
12,55%,"CN(c1ccccc1)S(=O)(=O)c1cccc(NC(=O)c2cnc3n(c2=O)CCS3)c1 [I-732, N-(3-(N-methyl-N-phenylsulfamoyl)phenyl)-5-oxo-2,3-dihydro-5H-thiazolo[3,2-a]pyrimidine-6-carboxamide]"
13,25%,"CS(=O)(=O)c1ccc2c(c1)N(C(=O)c1cccc(S(=O)(=O)N3CCc4ccccc43)c1)CCC2 [I-603, (3-(indolin-1-ylsulfonyl)phenyl)(7-(methylsulfonyl)-3,4-dihydroquinolin-1(2H)-yl)methanone]"
14,60%,"O=C(c1cccc(S(=O)(=O)N(Cc2ccccc2)c2cccc(C(F)(F)F)c2)c1)N1CCc2ccccc21 [I-457, N-benzyl-3-(indoline-1-carbonyl)-N-(3-(trifluoromethyl)phenyl)benzenesulfonamide]"
15,61%,"O=C(Nc1ccc2c(c1)OC1(CCCC1)O2)c1ccc(NS(=O)(=O)c2ccccc2)cc1 [I-908, 4-(phenylsulfonamido)-N-(spiro[benzo[d][1,3]dioxole-2,1′-cyclopentan]-5-yl)benzamide]"
16,16%,"Cc1ccccc1NC(=O)c1cc(S(=O)(=O)Nc2ccc(Br)cc2)ccc1Cl [I-36, 5-(N-(4-bromophenyl)sulfamoyl)-2-chloro-N-(o-tolyl)benzamide]"
17,66%,"Cc1ccc(NS(=O)(=O)c2ccc(C(=O)Nc3cccc(C#N)c3)cc2)cc1C [I-384, N-(3-cyanophenyl)-4-(N-(3,4-dimethylphenyl)sulfamoyl)benzamide]"
18,26%,"Cc1ccc(NC(=O)c2cccc(NS(=O)(=O)c3cccs3)c2)c(C)c1 [I-662, N-(2,4-dimethylphenyl)-3-(thiophene-2-sulfonamido)benzamide]"
19,64%,"O=C(Nc1ccc(F)cc1)c1ccc(NS(=O)(=O)c2ccc(Cl)c([N+](=O)[O-])c2)cc1 [I-902, 4-((4-chloro-3-nitrophenyl)sulfonamido)-N-(4-fluorophenyl)benzamide]"
20,79%,"O=C(Nc1cccc(S(=O)(=O)Nc2ccc(Br)cc2)c1)c1ccsc1 [I-701, N-(3-(N-(4-bromophenyl)sulfamoyl)phenyl)thiophene-3-carboxamide]"
